From patent US5432042A, “Method for obtaining a printing plate according to the silver salt diffusion transfer process” (Agfa-Gevaert, N.V., priority 1993, dated 1995) come the findings set out here.

The structures appear in SMILES notation.

What is called pKa is the pH at which an ionisable group is half protonated. High values mean a group that holds its proton tightly, low ones a group that gives up its proton readily.

The nature of the series: pKa of the mercapto group by titration with hydrochloric acid. Format: physicochemical. To be noted: 0.002 mole/liter in water at pH 11, titrated with hydrochloric acid (0.1 mole/liter). On the procedure:
The pKa of the hydrophobizing compounds in connection with the present invention were determined according to the method described in "Ionization Constants of Acids and Bases--A Laboratory Manual" written by Adrien Albert and E. P. Serjeant and Edited by John Wiley & Sons (New York) page 110-112 (1962).
In these particular cases, the hydrophobizing compounds were dissolved in water at pH 11. The concentration of the hydrophobizing compounds was 0.002 mole/liter and the mixture was then titrated with a solution of hydrochloric acid (0.1 mole/liter).

Compound `CCCCCCCc1nnc(S)o1` [2-mercapto-5-n.heptyl-oxa-3,4-diazole, reference compound] had a pKa of 4.8. The result for `CCCCCCn1nnnc1S` [compound 3] reads 3.4; that for `CCCCCCNC(=O)Cn1nnnc1S` [compound 1], 3.3.
